# Measured values from patent publication US20180353461A1, “USE OF CANNABINOIDS AS CERAMIDE-GENERATING ANTICANCER AGENTS IN TUMORS OF THE HEMATOPOIETIC AND LYMPHOID TISSUES” (priority 2014, published 2018).
# Legend:
# [1] = test system: U266 cells; test: SPT expression, ceramide staining and SPT inhibition in U266 cells; type: cell-based, human
# Description: Except if otherwise indicated, for the viability assays primary cells were incubated 18 hours, with vehicle (with <0.15% DMSO) or cannabinoid. Meanwhile, the time course assays cells were performed at 0, 2, 6, 18 and 24 h. For the analysis of SPT activity, cells were co-incubated for the first 6 hours with the SPT inhibitor, myriocin, and the cannabinoid, WIN-55 or JWH-133.
# Samples (15-25 ug/lane) were subjected to SDS/PAGE in pre-cast polyacrylamide gels AnykD (Bio-Rad Laboratories, Hercules, CA, USA) under reducing and denaturing conditions. Electrophoretic run was performed at a constant current of 15 mA per gel in a Mini-Protean® Tetra Cell (Bio-Rad Laboratories). Once proteins were separated by electrophoresis, were transferred onto PVDF membranes using Trans-Blot® Turbo™ System (Bio-Rad Laboratories). Electrotransference was conducted at constant amperage of 1.2 mA and at up to 25 V of voltage. The blotted membranes were then blocked with 2% bovine serum albumin [(BSA), Santa Cruz Biotechnology] in Tween-Tris buffer saline (TTBS) for 30 min with gentle agitation, and incubated overnight at 4° C. with corresponding primary antibody in TTBS. After twice washing with TTBS, membranes were incubated for 1-2 h at room temperature with suitable conjugated-HRP secondary antibody, and subjected to chemiluminescence detection using Western Blotting Luminol Reagent (Santa Cruz Biotechnology). Loading controls were carried out with an anti-beta-actin and anti-beta-tubulin antibodies (Sigma-Aldrich). Blots were captured using a digital imaging system ImageQuant LAS 4000 (Amersham GE Healthcare) and transferred to a digital image processing software to analyze (Adobe Photoshop CS2, version 9.0., Adobe Systems Inc., San Jose, Calif.).
# After cannabinoids and/or antagonists or SPT inhibitor treatment, primary cells and cell lines were washed with PBS, collected and placed on slides (Menzel-Glaser, Thermo Fisher Scientific). Cells were fixed in cold 4% paraformaldehyde for 10 min, treated with sodium borohydride and, permeabilized in 0.02% Triton X-100 in PBS with 10% normal donkey serum for blocking. Then, cells were incubated with the anti-CB1 or anti-CB2 receptor antibodies, anti-active-caspase3, anti-ceramide in blocking buffer overnight at 4° C. in a humid chamber (Simport, Beloeil, QC, Canada). After washing with PBS, samples were further incubated for 90 min with Alexa 647- or Alexa 488—conjugated donkey secondary antibody. After twice washing, first with PBS and then with 50 mM Tris-HCl (pH 7.4), and were dipped in a solution of Sudan Black B (Sigma-Aldrich) in 70% methanol for 5 min. After immunocytochemistry, slides were mounted using Fluoromount Aqueous Mounting Medium (Sigma-Aldrich). Preparations were examined with an Olympus BX-61 microscope (Olympus, Hamburg, Germany) equipped with appropriate filters: FITC/Cy2 (green fluorophores) 460-490 nm bandpass excitation filter and 510-550 nm bandpass emission filter; rhodamine/Cy3 (red fluorophores) 541-551 nm excitation and 572-607 nm emission; and Cy5 (deep red fluorophore) 615-635 nm excitation and 655 nm longpass emission. Digital images were acquired with CellSens Dimension Software (Olympus) and contrasted with Photoshop CS2 Software (Adobe Systems Inc). […]
# De novo synthesis of ceramides contribute to the apoptotic process triggered by cannabinoids. […] To this end, we analyzed the expression of serine palmitoyltransferase (SPT), the enzyme that catalyses the rate-limiting step of ceramide synthesis de novo. […]
# [2] = test system: U266 cells; test: Mitochondrial transmembrane potential (TMRE assay) in U266 cells; type: cell-based, human
# Description: The loss of mitochondrial transmembrane potential (Δψm), a marker of early apoptotic events, was determined by staining with TRME [(tetramethylrhodamine-ethyl-ester-perchlorate), Santa Cruz Biotechnology Inc.]. TMRE is a cell-permeable dye that becomes fluorescent once it is inside the mitochondria and, it can be detected using a fluorescent plate reader (Tecan). Briefly, cells (10e6 cells per assay) were treated with different concentrations of WIN-55 in presence or absence of SPT-inhibitor for 15, 30, 45 and 60 min at 37° C. After washing twice, cells were incubated for 20 min at 37° C. in the dark with 1 uM TMRE. The fluorescent intensity was read in the plate reader with excitation and emission wavelengths set at 485 and 538 nm respectively for red fluorescence. For each condition, triplicate samples (at least five times) were run, fluorescent readings were corrected for background. In all assays, CCCP (2-[2-(3-Chlorophenyl) hydrazinylyidene] propanedinitrile, a potent mitochondrial uncoupler, was used as a positive control of mitochondrial potential status.
# The early loss of mitochondrial-membrane potential induced by cannabinoids. To delve into the processes that participate in cannabinoid-induced apoptosis, finally we tested whether the cannabinoid treatment induces changes on Δψm in myelomatous cells. We observed that cannabinoids induced a drop of Δψm in U266 cells (FIG. 10). […]
smiles,measurement,setting,value
"CS(=O)(=O)O.Cc1c(C(=O)c2cccc3ccccc23)c2cccc3c2n1[C@H](CN1CCOCC1)CO3 [WIN-55, (R)-(+)-[2,3-dihydro-5-methyl-3-(4-morpholinylmethyl)-pyrrolo-[1,2,3]-1,4-benzoxazin-6-yl]-1-naphthalenylmethanone mesylate]","SPT, 2 h after exposure",[1]; U266,moderate increase
same,time at which SPT reached the maximal level,[1]; U266,18 h
same,"ceramide by immunohistochemistry, compared to untreated cells","[1]; U266, 50 uM, 18 hours",remarkable increase
same,SPT expression level in myelomatous cells,"[1]; U266, WIN-55 50 uM",enhanced
same,mitochondrial membrane potential (Δψm),[2],early loss of potential of mitochondrial membrane
